The source of these data is patent US20070059299A1, “S-adenosyl methionine decarboxylase inhibition for the treatment of a herpes simplex virus infection” (Institut National de la Sante et de la Recherche Medicale …, priority 2002, published 2007).

Each structure is given as a SMILES string. Read-outs that look alike come from different tables or passages of the source.

Assay [1] relates to foscarnet-resistant reference strain TP 2.5. Nature of the assay: Antiviral susceptibility testing by ELISA on HEp-2 cells, strain TP 2.5. Type of assay: cell-based, HSV 1. To be noted: median of at least three assays, drugs diluted in μM, read-out: Susceptibility of strain TP2.5 (concentration causing 50% inhibition of viral replication, IC50), median. As to the method:
(§1) Three HSV 1 reference strains were tested : SC16 (acyclovir-susceptible reference strain; (Hill et al., 1975)), DM21 (acyclovir-resistant reference strain derived from SC16; (Efstathiou et al., 1989)) and TP 2.5 (foscarnet-resistant reference strain derived from SC16; (Larder and Darby, 1985)). Antiviral assays were performed in duplicate on HEp-2 cells seeded in 96 wells microplates. Dilutions of virus and drugs were prepared in E-MEM without FCS. Cells were first treated for 24 hours with MGBG using a series of 6 twofold serial dilutions from 12.5 to 400 μM. Infection was then achieved with 5 tenfold dilutions of cell-associated virus (10^−1 to 10^−5). Each dilution was incubated with a series of 6 concentrations of each antiviral drug (from 12.5 to 400 μM in twofold dilutions for MGBG, from 0.16 to 500 μM in fivefold dilutions for acyclovir and from 31 to 1000 μM in twofold dilutions for foscarnet). […] After incubation at 36° C. with 5% CO2 for 24 hours post-infection, medium was replaced with freshly prepared dilutions of MGBG. Viral multiplication was checked 24 hours afterwards by an ELISA (Morfin et al., 1999), using a rabbit monoclonal anti-HSV 1 antibody (BO 114, Dako) and a protein A peroxidase-conjugated (BioRad). The substrate, 2,2′-azino-di(3-ethyl-benzthiazoline) sulfonic acid (ABTS) diluted in ABTS buffer (Boehringer, Mannheim), was added to each well. After 30 min at room temperature, the plates were briefly agitated and optical densities were read at 405 nm with a multichannel spectrophotomoter (Titertek-Multiskan). Optical density values were used with the Biolise program (Life Sciences International) to calculate the concentration of the drug causing a 50% inhibition of viral replication (IC50) by logistic regression analysis.
(§2) The capacity of MGBG to preclude infection of three HSV-1 acyclovir and/or foscarnet resistant strains was tested. […] The ED values were determined.

In assay [2] the test system is acyclovir-susceptible reference strain SC16. The assay can be described thus: Antiviral susceptibility testing by ELISA on HEp-2 cells, strain SC16. Type of assay: cell-based, HSV 1. How it is done: as §1, §2
The subject of assay [3] is acyclovir-resistant reference strain DM21. Nature of the assay: Antiviral susceptibility testing by ELISA on HEp-2 cells, strain DM21. Type of assay: cell-based, HSV 1. To be noted: for IC50: HEp-2 cells, ELISA, median of at least three assays, drugs diluted in μM, read-out: Susceptibility of strain DM21 (concentration causing 50% inhibition of viral replication, IC50), median. As to the method: as §1
The capacity of MGBG to preclude infection of three HSV-1 acyclovir and/or foscarnet resistant strains was tested. The reference strains used in this study were the SC16 acyclovir-susceptible reference strain, the DM21 acyclovir-resistant reference strain derived from SC16 and the TP 2.5 foscarnet-resistant reference strain derived from SC16 (Efstathiou et al., 1989; Hill et al., 1975; Larder and Darby, 1985). In each experiment, dose response curves were constructed for […], for acyclovir, and for MGBG. The ED values were determined.

A further assay has as its target T1, SAMDC (Rattus norvegicus, UniProt P17708).
T1 construct: according to the procedure described in Pegg A E, Poso H, S-adenosylmethionine decarboxylase (rat liver), Methods Enzymol; 1983;94: 234-239; from tissue
T1 sequence (P17708 68-333 limits assumed): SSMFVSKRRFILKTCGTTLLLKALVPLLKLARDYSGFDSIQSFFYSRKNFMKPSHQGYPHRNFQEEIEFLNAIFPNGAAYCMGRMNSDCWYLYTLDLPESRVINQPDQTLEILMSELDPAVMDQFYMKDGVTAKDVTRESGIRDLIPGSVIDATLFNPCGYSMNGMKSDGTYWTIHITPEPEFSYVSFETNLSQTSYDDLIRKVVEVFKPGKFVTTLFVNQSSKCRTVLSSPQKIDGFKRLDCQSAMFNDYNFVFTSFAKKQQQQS
T1 sequence (P17708 1-67 limits assumed): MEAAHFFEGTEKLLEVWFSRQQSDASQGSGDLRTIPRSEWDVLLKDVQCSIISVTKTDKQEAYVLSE
Nature of the assay: SAMDC inhibition in vitro. In kind it is biochemical. The settings on record: inhibitor at 0.1 μM. The source says:
The results of SAMDC inhibition in vitro and of HSV replications in cellulo for MGBG and Compounds (I) to (III) disclosed above are reported in the table below.

Another assay deals with HSV. The assay can be described thus: HSV replication in cellulo. Type of assay: cell-based. To be noted: read-out: HSV inhibition in cellulo IC50. How it is done: as §1
The test system of assay [4] is HSV-1 macroplaque strain (MP). In kind it is cell-based. The settings on record: 50 μM spermine added with 100 μM MGBG and virus, or 2 h later. As to the method:
HEp2 cells were grown as monolayers in Eagle's minimum essential medium (E-MEM) supplemented or not with 5% heat-inactivated foetal calf serum (FCS) and supplemented with 100 U/ml penicillin and 100 U/ml streptomycin. The cells were maintained at 37° C. under 5% CO2. The HSV-1 macroplaque strain (MP), obtained from B. Jacquemont (Lyon, France), was a gift of B. Roizman (Chicago, Ill., U.S.A.), and was used throughout this study. Viruses were grown in HEp2 cells.
HEp2 cells were grown in 6-well plates (˜10^6 cells/well) and infected just before confluence with a multiplicity of infection (m.o.i.) of 0.5 plaque-forming units (PFU) per cell in E-MEM in absence of FCS, except for some experiments. After adsorption of the virus for 1 h at 33° C. under 5% CO2, the medium containing the virus suspension was removed and the cells were washed with E-MEM, then incubated in E-MEM without FCS at 37° C. for different periods of times until harvest. Times post-infection (p.i.) were calculated from the time of addition of the virus suspension. HEp2 cells were exposed to MGBG treatment for different times. When cells were pre-treated with MGBG prior infection, MGBG was added to cell medium 6 h or 24 h prior infection until harvest. In non pre-treated cells, MGBG was added simultaneously with virus suspension, or 2 h, 4 h or 6 h latter. When cells were treated for more than 24 h, medium was replaced every 24 h with fresh medium containing the same concentration of MGBG.
Accordingly, the effect of inactivation of enzymes involved in polyamine biosynthesis upon HSV-1 infection inhibition was assessed. The HSV-1 MP strain was used throughout this study for its ability to induce the formation of large syncytia from infected cells. Therefore, it was possible to easily and quickly investigate the inhibition of viral replication at the level of syncytia formation.
To investigate the effect of the concentration of MGBG on viral infection, HEp2 cells were infected with 0.5 PFU of HSV-1 per cell in FCS free medium in which 10 μM to 300 μM MGBG was added from the adsorption step of the virus until the end of the experiment. After 24 h of infection, the formation of syncytia was observed, and the number of syncytia was estimated by counting using the optical microscope.
HEp2 cell were pre-treated with MGBG by incubation in FCS free medium containing 10 to 300 μM MGBG 6h to 24 h before infection. Then cells were infected as described above and MGBG was maintained in the medium until the end of the experiment.

The subject of assay [5] is HSV-1 proteins, mRNA and DNA. Nature of the assay: Levels of viral proteins (Western blot), mRNA and DNA (slot blot) in infected HEp2 cells. Type of assay: cell-based. To be noted: 6 h pre-treatment with 100 μM MGBG, then MGBG and 50 μM spermine, 24 h p.i.
Description: Total RNA and DNA from control mock-infected and infected HEp2 cells were purified using Qiagen RNA/DNA kit. RNA were submitted to DNAse/RNAse free digestion (1.5 unit/μg RNA) and DNA were submitted to RNAse A digestion (10 units/μg). Quantitation of SAMDC mRNA, of viral mRNAs and viral DNA present in each sample was determined by slot blot analysis using the 1250 bp PstI/PvuII fragment of pSAMr1 plasmid (Pajunen et al., 1988). The 746 bp SalI-EcoNI fragment of pSG28 and the 1308 bp MluI fragment of pSG124 plasmids (Goldin et al., 1981) were labelled with [^32P] and used as probes to detect the immediate early ICP27 and the early UL42 mRNAs respectively. Us11 late mRNA was detected with [^32P]-labelled probe composed of the 230 bp XhoI fragment of pHSV-Us12 plasmid (Diaz et al., 1996). Viral DNA was detected using the ICP27 specific DNA probe.
Mock-infected and HSV-1-infected HEp2 cells were washed three times with ice cold phosphate-buffered saline (PBS) (130 mM NaCl, 4 mM Na2HPO4.2H2O, 1.5 mM KH2PO4), scrapped into PBS, and collected by centrifugation at 500×g. Cells were resuspended in Laemmli buffer (Laemmli, 1970). Proteins were resolved by polyacrylamide gel electrophoresis and transferred by electroblotting onto a polyvinylidene difluoride membrane (Immobilon-P; Millipore). Viral proteins were analysed by Western blots (10 μg aliquots) using a 50 fold dilution of either a rabbit polyclonal anti-ICP27 antibody, or a rabbit polyclonal anti-Us11 antibody (Diaz et al., 1993), or a mouse monoclonal anti-UL42 antibody diluted 50 fold.
Cells were pre-treated with 10 to 200 μM of MGBG, then infected with HSV-1 in the presence of the same concentrations of MGBG. Proteins, RNA and DNA were extracted from cells infected for 24 h. Viral proteins were detected by Western blot using specific antibodies, whereas viral mRNA and DNA levels were assayed by slot blot analysis.

As to `O=C(O)P(=O)(O)O` [Foscarnet, foscarnet], the IC50 in assay [1] is more than 1000 µM; in assay [2] (HEp-2, read-out: Susceptibility of strain SC16 (concentration causing 50% inhibition of viral replication, IC50), median), 224 µM; in assay [3], 148 µM. For the same compound, in assay [3] (compared with SC16), the “decreased IC50 on acyclovir-resistant strains versus acyclovir-susceptible strain” value stood at 34%.

On to `N=C(N)c1ccc(/N=N/Nc2ccc(C(=N)N)cc2)cc1` [Compound (I), Berenil], for which the “% inhibition in vitro (0.1 μM)” value at SAMDC is given as 47%. Moreover, the IC50 with HSV came out at 70 µM.

Turning to `Nc1nc2c(ncn2COCCO)c(=O)[nH]1` [Acyclovir, acyclovir], the IC50 in assay [1] was 215 µM; in assay [2] (HEp-2 cells, ELISA, median of at least three assays, drugs diluted in μM, read-out: Susceptibility of strain SC16 (concentration causing 50% inhibition of viral replication, IC50), median) it was 28 µM; in assay [3] it was more than 500 µM.

`CC(NNC(=N)N)c1cccc(C(=N)N)n1` (centres unmarked) [Compound (III)]: at 0.1 µM the inhibition against SAMDC was 97%.

Take `N=C(N)c1cccc2c1CC/C2=N\N=C(N)N` [Compound (II), SAM486A]: the “% inhibition in vitro (0.1 μM)” value at SAMDC is 97%. Also, in the assay on HSV, the IC50 was 47 µM.

For the compound `NCCCNCCCCNCCCN` [spermine], in assay [4], the “MGBG inhibition of viral infection on addition of exogenous spermine” value is “totally prevented”. The “MGBG-induced viral inhibition in the presence of exogenous spermine” value in assay [5] was “abolished the MGBG-induced viral inhibition”.
